The text below walks through data of US5670526A, “1,3,4-oxadiazoles” (Otsuka Pharmaceutical Co., Ltd., priority 1995, dated 1997).

Each structure is given as a SMILES string.

Test [1] has as its system Concanavalin A (ConA)-induced liver injury. Description: Concanavalin A (ConA)-induced liver injury in mice, serum SGOT. Type of test: in vivo, C57BL/6 mice. The settings on record: Mus musculus, ip, ConA 15 mg/kg i.v., 17 hours, read-out: SGOT (% decrease); for inhibition in vivo at 50 mg/kg: 50 mg/kg i.p. On the procedure: The following protocol was used for the Concanavalin A (ConA)-induced liver injury in mice. C57BL/6 mice were used. A solution of ConA (Sigma)in PBS was prepared at a concentration of 1.5 mg/ml. The mice were administered, i.p., with […] of a 10% DMSO solution containing varying amounts (adjusted to give 25 mg/kg to 50 mg/kg of compound) of the representative compounds of interest. Fifteen minutes later, the mice were treated via the tail vein with 15 mg/kg of ConA in PBS along with […] of 10% DMSO solution.
The mice were sacrificed after 17 hours and the blood collected into small conical tubes. The tubes were centrifuged and the serum collected and assayed for serum glutamic oxaloacetic transaminase (SGOT) (Sigma GOT kit). The high level enzyme standard (Sigma) was used to make the standard curve, as 100(undiluted), 50, 25, 12.5 and 0 S-F units/mi. Samples were diluted 1:5, 1:25 and 1:125 by adding 25 μl of serum to 100 μl of H2 O and serially diluting 25 μl into 100 μl two more times. Then 100 μl of the Sigma substrate were added to each tube along with 20 μl of each diluted sample and enzyme standard. The tube was incubated in a 37° C. bath with gentle shaking for 1 hour. To that was added […] of colorizing reagent and the tube was left to stand for 30 minutes. Then 500 μl of 0.8N NaOH solution were added, the tubes were capped and inverted to mix thoroughly. A 150 μl aliquot of each sample and 150 μl of the standard were added to wells of a 96-well plate and color formation was monitored at 490 nm. The amounts of SGOT were calculated using a standard curve, converted to Sigma-Frankel units/ml.

The subject of test [2] is Neutrophil migration. Kind of test: Immune complex (BSA/anti-BSA) induced neutrophil migration into mouse skin, myeloperoxidase (MPO) assay. The format is in vivo, C57BL/6 mouse. The settings on record: for inhibition in vivo at 12.5 mg/site: Mus musculus, Neutrophil, 12.5 mg of drug/site, i.d., 4 hours. The method, then: Neutrophil migration and infiltration into tissue spaces and the effect thereon of the compounds of the instant compounds can be tested. For example, immune complexes can be developed at a subcutaneous or intradermal site to draw neutrophils and the effect of the instant compounds on neutrophil migration can be assessed. A protocol is as follows. Mice are injected IV with bovine serum albumin (BSA). Then the mice are injected intradermally with antibody to BSA. For experimental animals, the test substance is administered concurrently intradermally or subcutaneously at the site of antibody deposition. After about four hours, the animal is sacrificed, the skin at the injection site is removed and then treated appropriately, such as assaying for myeloperoxidase, to determine the extent of neutrophil migration to the injection site.
An i.v. injection of 100 μl of BSA at 10 mg/ml in saline was followed by a 25 μl injection of anti-BSA i.d. on the back side of a pre-shaven C57BL/6 mouse. At time 0, along with the BSA and anti-BSA, the test compound or vehicle was administered i.d. at the site of the antibody injection in a volume of 25 μl (for example, 0.5 mg/μl solution). Four hours post injection, the skin was removed and a myeloperoxidase (MPO) assay performed (Mulligan et al., J. Imm. 151(10): 5666-5674, 1993).
Briefly, the skin sample was placed in a 17×100 mm test tube containing 2 ml of ice cold buffer (PBS, pH 7.4). The sample was ground for 30 seconds and placed on ice. The sample was vortexed for 10 seconds and then sonicated for three minutes in iced water. The sample was frozen in dry ice for 30 minutes. The sample then was thawed rapidly in a water bath for 10 minutes. An aliquot of 1.5 ml was removed and placed in a microfuge tube. The sample was spun at high speed in a cold room for 15 minutes. The sample then was titrated across the wells in a microtiter plate with the first well containing a 1:3 dilution of sample, for example, 50 μl of sample and 150 μl of buffer. Substrate and hydrogen peroxide were added to each well. Following a suitable incubation period, sodium azide was added to the wells and the absorbance monitored in a spectrophotometer at 460 nm. […]

Test [3] has as its system ELAM. Description: ELISA for cell surface molecules: inhibition of ELAM expression on IL-1β stimulated HUVEC's. The format is cell-based. To be noted: Homo sapiens; for inhibition at 3 µg/mL: @ 3 μg/ml; for inhibition at 1 µg/mL: @ 1 μg/mL. On the procedure:
(§1) The following were used in an ELISA for cell surface molecules: Costar 96-well TC plates, 2% gelatin, 1% BSA-Dulbecco's PBS w/CaMg^++, IL-1β, primary antibody e.g., 7A9 for ELAM (EP 505749) secondary biotinylated goat anti-mouse IgG/IgM, streptavidin-peroxidase, OPD substrate tablets and 30% hydrogen peroxide.
(§2) To begin, 96-well plates were coated with 2% gelatin (1 hour). The excess gelatin was aspirated from the wells. HUVEC's were seeded at 20,000 cells/well in a 200 μl volume.
(§3) Prior to assay, the test compounds were dissolved in DMSO at a stock concentration of 3 mg/ml. The stock solutions were set at room temperature and observed to see if dissolution was complete. When monolayers reached confluence (24-28 hours after seeding) the test compounds were added to the wells at final concentrations of 10 μg/ml, 3 μg/ml and 1 μg/ml. The plates were incubated for 1 hour at 37° C. Then, IL-1β at a final concentration of 1 μg/ml was added and the plates incubated for 4 hours at 37° C. The supernatant was removed from the plates by flicking into a sink. The wells were washed 3× with 1% BSA-Dulbecco's PBS.
(§4) Primary antibody (7A9 for ELAM or a suitable antibody for VCAM or ICAM) at a concentration of 2.5 μg/ml in a 50 μl volume was added to each well. The plates were incubated at 4° C. for 45 minutes to 1 hour. The wells were washed 3× with 1% BSA Dulbecco's PBS. Secondary antibody (biotinylated goat anti-mouse IgG-IgM, commercially available) at 50 μl/well at a final dilution of 1:1,000 was added to the well and the plates were incubated for 45 minutes to 1 hour at 4° C. The wells were washed 3× with 1% BSA-Dulbecco's PBS.
(§5) Streptavidin-peroxidase at 50 μl/well with a final dilution of 1:3,000 was added to each well and the plates were incubated at 4° C. for 30 minutes. Again the plates were washed 3× with 1% BSA-Dulbecco's PBS.
(§6) Substrate solution (OPD tablets, citric acid buffer and hydrogen peroxide solution) was prepared and added at 100 μl/well. The plates were incubated 15 minutes at room temperature on a plate shaker and the reaction was stopped with 12.5% sulfuric acid. Plates were read for absorbance values at 492 nm.
(§7) The degree of inhibition in expression of ELAM or VCAM by a compound of the instant invention is manifest as a decrease in specific primary antibody binding. In the following table the IC50 values are provided using a representative sampling of compounds of the instant invention.
(ELISA stands for enzyme-linked immunosorbent assay.)

Test [4] has as its system VCAM. Description: ELISA for cell surface molecules: inhibition of VCAM expression on IL-1β stimulated HUVEC's. The format is cell-based. To be noted: Homo sapiens; for inhibition at 3 µg/mL: @ 3 μg/ml; for inhibition at 1 µg/mL: @ 1 μg/mL. The method, then:
as §1, §2, §3, §4, §5, §6, §7

As for `COc1c(C)cnc(CSc2nnc(C)o2)c1C` [Compound 16, 2-(3,5-dimethyl-4-methoxy-2-pyridyl)methylthio-5-methyl-1,3,4-oxadiazole], in test [1], the inhibition in vivo at 50 mg/kg was found to be 85%.
Same read-out and setting: the figure for `COc1ccnc2c1CCCCC2Sc1nnc(C)o1` (stereo not drawn) [Compound 19] is 87%; for `COc1c(C)cnc(CSc2nnc(-c3cccs3)o2)c1C` [Compound 35] it is 45%.
`c1ccc(CSc2nnc(-c3ccccn3)o2)cc1` [Compound 44]: in test [1] (25 mg/kg i.p.), the inhibition in vivo at 25 mg/kg came to 86%.
For `c1ccc(CSc2nnc(-c3cccnc3)o2)cc1` [Compound 48], the inhibition in vivo at 50 mg/kg in test [1] is 51%.
The same measure, in the same setting: as for `COc1c(C)cnc(CSc2nnc(-c3ccccc3O)o2)c1C` [Compound 60], the figure is 60%; as for `COc1c(C)cnc(CSc2nnc(-c3nc(-c4ccccc4)cs3)o2)c1C` [Compound 67], 55%.
As for `c1ccc(CSc2nnc(-c3nc(-c4ccccc4)cs3)o2)cc1` [Compound 68], the “decrease in MPO activity” value in test [2] (test compound i.d. at site of antibody injection, 4 hours post injection) was 55-60%.
Turning to `COc1ccnc2c1CCCCC2Sc1nnc(-c2nc(-c3ccccc3)cs2)o1` (stereo not drawn) [Compound 69], the inhibition in vivo at 50 mg/kg in test [1] amounted to 30%.
Turning to `COc1c(C)cnc(C[S+]([O-])c2nnc(C)o2)c1C` (stereo not drawn) [Compound 70, 2-(3,5-dimethyl-4-methoxy-2-pyridyl)methylsulfinyl-5-methyl-1,3,4-oxadiazole], the inhibition in vivo at 50 mg/kg in test [1] was 82%. The inhibition (commonly the change of the read-out against control, counted positive when it falls) at 3 µg/mL came out at 55% in test [3] and 65% in test [4]. In test [2], the inhibition in vivo at 12.5 mg/site is 55%.
As for `Cc1nnc([S+]([O-])Cc2ccccn2)o1` (stereo not drawn) [Compound 71], the inhibition at 3 µg/mL in test [3] was 30%; in test [4] it was 40%. Besides, the inhibition in vivo at 12.5 mg/site in test [2] was 40%.
`Cc1nnc([S+]([O-])Cc2ccccc2)o1` (stereo not drawn) [Compound 72]: the inhibition at 3 µg/mL is 15% in test [3] and 25% in test [4].
Consider `COc1ccnc2c1CCCCC2[S+]([O-])c1nnc(C)o1` (stereo not drawn) [Compound 73], for which the inhibition at 10 µg/mL in test [3] (@ 10 μg/mL) and in test [4] (@ 10 μg/mL) was 20% each time.
Regarding `Cc1nnc([S+]([O-])Cc2nccn2Cc2ccccc2)o1` (stereo not drawn) [Compound 75], the results for the inhibition at 3 µg/mL in test [3] and in test [4] were 55% and 100%, respectively. The compound further yielded an inhibition in vivo at 12.5 mg/site in test [2] of 20%.
With `Cc1nnc([S+]([O-])Cc2ncn(Cc3ccccc3)c2C)o1` (stereo not drawn) [Compound 76], in test [2], the inhibition in vivo at 12.5 mg/site was found to be 20%.
In the case of `CCc1nnc([S+]([O-])Cc2ncc(C)c(OC)c2C)o1` (stereo not drawn) [Compound 79], the inhibition at 3 µg/mL in test [3] worked out at 35%; in test [4], 50%.
For `CCCc1nnc([S+]([O-])Cc2ncc(C)c(OC)c2C)o1` (stereo not drawn) [Compound 80], the inhibition at 3 µg/mL in test [3] turned out to be 45%; in test [4] it was 70%.
Regarding `CCCCc1nnc([S+]([O-])Cc2ncc(C)c(OC)c2C)o1` (stereo not drawn) [Compound 81], in test [4], the inhibition at 3 µg/mL is 20%.
For `COc1c(C)cnc(C[S+]([O-])c2nnc(-c3ccccc3)o2)c1C` (stereo not drawn) [Compound 85], the inhibition in vivo at 12.5 mg/site in test [2] was 25%. Besides, the inhibition at 3 µg/mL in test [4] is 100%.
Consider `COc1c(C)cnc(C[S+]([O-])c2nnc(-c3cccs3)o2)c1C` (stereo not drawn) [Compound 89], for which the inhibition in vivo at 50 mg/kg in test [1] amounted to 95%. Further, the inhibition at 1 µg/mL in test [3] was 25%; in test [4], 60%.
Regarding `[O-][S+](Cc1ccccc1)c1nnc(-c2cccs2)o1` (stereo not drawn) [Compound 91], the inhibition at 1 µg/mL in test [3] and in test [4] was 20% throughout. The same compound gave an inhibition in vivo at 12.5 mg/site in test [2] of 40%.
Regarding `[O-][S+](Cc1ccccn1)c1nnc(-c2ccncc2)o1` (stereo not drawn) [Compound 92], in test [2], the inhibition in vivo at 12.5 mg/site is 60%. For the same compound, in test [4], the inhibition at 3 µg/mL was found to be 100%.
On to `[O-][S+](Cc1ccccn1)c1nnc(-c2ccccn2)o1` (stereo not drawn) [Compound 96], for which the inhibition at 1 µg/mL in test [3] and in test [4] was 50% throughout. This compound also displayed an inhibition in vivo at 12.5 mg/site in test [2] of 70%.
Consider `[O-][S+](Cc1ccccn1)c1nnc(-c2cccnc2)o1` (stereo not drawn) [Compound 100], for which the inhibition in vivo at 12.5 mg/site in test [2] came to 60%. Also, in test [4], the inhibition at 3 µg/mL came out at 80%.
In test [2], `[O-][S+](Cc1ccccn1)c1nnc(C23CC4CC(CC(C4)C2)C3)o1` (stereo not drawn) [Compound 102] returned an inhibition in vivo at 12.5 mg/site of 25%. Besides, the inhibition at 3 µg/mL in test [4] worked out at 30%.
Regarding `[O-][S+](Cc1ccccc1)c1nnc(-c2cc(-c3ccccc3)nc3ccccc23)o1` (stereo not drawn) [Compound 106], the inhibition at 3 µg/mL in test [4] stood at 10%.
Turning to `COc1c(C)cnc(C[S+]([O-])c2nnc(-c3cccn3C)o2)c1C` (stereo not drawn) [Compound 112], the inhibition at 1 µg/mL in test [3] came out at 25%; in test [4], 65%.
In the same order, the values of `[O-][S+](Cc1ccccc1)c1nnc(-c2ccccc2O)o1` (stereo not drawn) [Compound 114] are 20% and 25%.
Take `COc1c(C)cnc(C[S+]([O-])c2nnc(-c3cccc(C(F)(F)F)c3)o2)c1C` (stereo not drawn) [Compound 116]: the inhibition at 3 µg/mL in test [4] is 25%.
The same measure, in the same setting: as for `COc1c(C)cnc(C[S+]([O-])c2nnc(-c3ccc(C(F)(F)F)cc3)o2)c1C` (stereo not drawn) [Compound 117], the figure is 15%; as for `[O-][S+](Cc1ccccc1)c1nnc(-c2nc(-c3ccccc3)cs2)o1` (stereo not drawn) [Compound 121], 50%.
